13 compounds from patent US7803815B2, “Indol-3-yl-corbonyl-piperidin-benzoimidazol derivatives” (Hoffmann-La Roche Inc., priority 2005, dated 2010) can be followed below.

SMILES strings stand for the structures.

The target of the experiment is T1, human V1a receptor (Homo sapiens, UniProt P37288).
T1 construct: expressed in transfected cells; host or cells: HEK293 cells, transiently transfected; membrane preparation
Nature of the experiment: human V1a receptor binding, 3H-Vasopressin SPA on membranes of transfected HEK293 cells. The settings on record: displacement of 4 nM 3H-Vasopressin; HEK293 cell membranes; 1 h at room temperature; Ki from IC50 by the Cheng-Prussoff equation. As to the method: The human V1a receptor was cloned by RT-PCR from total human liver RNA. The coding sequence was subcloned in an expression vector after sequencing to confirm the identity of the amplified sequence. […] Cell membranes were prepared from HEK293 cells transiently transfected with the expression vector and grown in 20 liter fermenters with the following protocol.
50 g of cells are resuspended in 30 ml freshly prepared ice cold Lysis buffer (50 mM HEPES, 1 mM EDTA, 10 mM MgCl2 adjusted to pH=7.4+ complete cocktail of protease inhibitor (Roche Diagnostics)). Homogenized with Polytron for 1 min and sonicated on ice for 2×2 minutes at 80% intensity (Vibracell sonicator). The preparation is centrifuged 20 min at 500 g at 4° C., the pellet is discarded, and the supernatant centrifuged 1 hour at 43,000 g at 4° C. (19,000 rpm). The pellet is resuspended in 12.5 ml Lysis buffer+12.5 ml Sucrose 20% and homogenized using a Polytron for 1-2 min. The protein concentration is determined by the Bradford method, and aliquots are stored at −80° C. until use. For binding studies 60 mg Yttrium silicate SPA beads (Amersham) are mixed with an aliquot of membrane in binding buffer (50 mM Tris, 120 mM NaCl, 5 mM, KCl, 2 mM CaCl2, 10 mM MgCl2) for 15 minutes with mixing. 50 ul of bead/membrane mixture is then added to each well of a 96 well plate, followed by 50 ul of 4 nM 3H-Vasopressin (American Radiolabeled Chemicals). For total binding measurement, 100 ul of binding buffer are added to the respective wells, for non-specific binding 100 ul of […] cold vasopressin and for compound testing 100 ul of a serial dilution of each compound in 2% DMSO. The plate is incubated 1 h at room temperature, centrifuged 1 min at 1000 g and counted on a Packard Top-Count. Non-specific binding counts are subtracted from each well, and data is normalized to the maximum specific binding set at 100%. To calculate an IC 50, the curve is fitted using a non-linear regression model (XLfit), and the Ki is calculated using the Cheng-Prussoff equation.

T1 sequence (P37288 whole entry): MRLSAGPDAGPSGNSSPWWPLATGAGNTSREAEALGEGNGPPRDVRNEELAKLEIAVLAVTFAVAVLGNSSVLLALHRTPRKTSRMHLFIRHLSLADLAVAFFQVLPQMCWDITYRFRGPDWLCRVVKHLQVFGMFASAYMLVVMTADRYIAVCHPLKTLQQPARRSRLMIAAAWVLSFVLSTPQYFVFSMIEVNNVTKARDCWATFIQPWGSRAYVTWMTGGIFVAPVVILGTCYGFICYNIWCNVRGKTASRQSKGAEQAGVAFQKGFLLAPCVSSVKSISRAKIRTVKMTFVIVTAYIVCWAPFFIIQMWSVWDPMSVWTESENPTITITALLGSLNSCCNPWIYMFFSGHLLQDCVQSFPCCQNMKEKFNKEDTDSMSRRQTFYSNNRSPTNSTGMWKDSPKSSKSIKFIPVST

As a reminder, the Ki is the equilibrium dissociation constant of an inhibitor or competing ligand from its target. Low values mean higher affinity, high ones lower affinity. Compound `CCN(CC)C(=O)Cn1cc(C(=O)N2CCC(n3c(=O)n(CC(=O)N(CC)CC)c4ccccc43)CC2)c2ccc(Cl)cc21` [Example 43, 2-{6-Chloro-3-[4-(3-diethylcarbamoylmethyl-2-oxo-2,3-dihydro-benzoimidazol-1-yl)-piperidine-1-carbonyl]-indol-1-yl}-N,N-diethyl-acetamide] registered a Ki of 62 nM.

`O=C(Cn1cc(C(=O)N2CCC(n3c(=O)[nH]c4ccccc43)CC2)c2ccc(Cl)cc21)c1cc(F)ccc1F` [Example 35, 1-(1-{6-Chloro-1-[2-(2,5-difluoro-phenyl)-2-oxo-ethyl]-1H-indole-3-carbonyl}-piperidin-4-yl)-1,3-dihydro-benzoimidazol-2-one] displayed a Ki of 5 nM.

Take `O=C(c1cn(Cc2cc(F)cc(F)c2)c2cc(Cl)ccc12)N1CCC(n2c(=O)[nH]c3ccccc32)CC1` [Example 33, 1-{1-[6-Chloro-1-(3,5-difluoro-benzyl)-1H-indole-3-carbonyl]-piperidin-4-yl}-1,3-dihydro-benzoimidazol-2-one]: the Ki is 15 nM.

Compound `O=C(Cn1cc(C(=O)N2CCC(n3c(=O)[nH]c4ccccc43)CC2)c2ccc(Cl)cc21)c1cccc(F)c1` [Example 29, 1-(1-{6-Chloro-1-[2-(3-fluoro-phenyl)-2-oxo-ethyl]-1H-indole-3-carbonyl}-piperidin-4-yl)-1,3-dihydro-benzoimidazol-2-one] had a Ki of 22 nM.

For `CN(C)C(=O)Cn1cc(C(=O)N2CCC(n3c(=O)[nH]c4ccccc43)CC2)c2ccc(Cl)cc21` [Example 46, 2-{6-Chloro-3-[4-(2-oxo-2,3-dihydro-benzoimidazol-1-yl)-piperidine-1-carbonyl]-indol-1-yl}-N,N-dimethyl-acetamide], the Ki was 2 nM.

Take `O=C(Cn1cc(C(=O)N2CCC(n3c(=O)[nH]c4ccccc43)CC2)c2ccc(Cl)cc21)c1ccccc1F` [Example 38, 1-(1-{6-Chloro-1-[2-(2-fluoro-phenyl)-2-oxo-ethyl]-1H-indole-3-carbonyl}-piperidin-4-yl)-1,3-dihydro-benzoimidazol-2-one]: the Ki turned out to be 2 nM.

Compound `Cc1c(C(=O)N2CCC(n3c(=O)[nH]c4ccccc43)CC2)c2ccccc2n1Cc1ccccc1` [Example 23, 1-[1-(1-Benzyl-2-methyl-1H-indole-3-carbonyl)-piperidin-4-yl]-1,3-dihydro-benzoimidazol-2-one] returned a Ki of 6 nM.

`O=C(c1cn(Cc2cccc(F)c2)c2cc(Cl)ccc12)N1CCC(n2c(=O)[nH]c3ccccc32)CC1` [Example 34, 1-{1-[6-Chloro-1-(3-fluoro-benzyl)-1H-indole-3-carbonyl]-piperidin-4-yl}-1,3-dihydro-benzoimidazol-2-one]: the Ki was determined as 9 nM.

Take `Cc1[nH]c2ccccc2c1C(=O)N1CCC(n2c(=O)[nH]c3ccccc32)CC1` [Example 10, 1-[1-(2-Methyl-1H-indole-3-carbonyl)-piperidin-4-yl]-1,3-dihydro-benzoimidazol-2-one]: affinity was put at a Ki of 39 nM.

For `Cc1c(C(=O)N2CCC(n3c(N4CCOCC4)nc4ccccc43)CC2)c2ccccc2n1Cc1ccccc1` [Example 3, (1-Benzyl-2-methyl-1H-indol-3-yl)-[4-(2-morpholin-4-yl-benzoimidazol-1-yl)-piperidin-1-yl]-methanone], the Ki stood at 18 nM.

In turn, `O=C(Cn1cc(C(=O)N2CCC(n3c(=O)n(CC(=O)N4CCCCC4)c4ccccc43)CC2)c2ccc(Cl)cc21)N1CCCCC1` [Example 42, 1-{1-[6-Chloro-1-(2-oxo-2-piperidin-1-yl-ethyl)-1H-indole-3-carbonyl]-piperidin-4-yl}-3-(2-oxo-2-piperidin-1-yl-ethyl)-1,3-dihydro-benzoimidazol-2-one] gave a Ki of 18 nM.

In turn, `CN(C)CCn1cc(C(=O)N2CCC(n3c(=O)[nH]c4ccccc43)CC2)c2ccc(Cl)cc21` [Example 26, 1-{1-[6-Chloro-1-(2-dimethylamino-ethyl)-1H-indole-3-carbonyl]-piperidin-4-yl}-1,3-dihydro-benzoimidazol-2-one] registered a Ki of 0.7 nM.

In the case of `CC(C)n1cc(C(=O)N2CCC(n3c(=O)[nH]c4ccccc43)CC2)c2ccc(Cl)cc21` [Example 13, 1-[1-(6-Chloro-1-isopropyl-1H-indole-3-carbonyl)-piperidin-4-yl]-1,3-dihydro-benzoimidazol-2-one], affinity was put at a Ki of 2 nM.
